Experimental data reported in patent US20230391841A1, “MACROCYCLIC PEPTIDES” (Herantis Pharma OYJ, priority 2019, published 2023).
Bridge positions count the residues as written; N and C are the ends. Peptide text beside a SMILES is read from it.

Columns and labels:
[1] = In vitro metabolic stability in rat plasma; type: in vitro ADME; conditions: 1 μM, 37° C., up to 120 min
Protocol: The linear and macrocyclic compounds 1-14 and 23-26 (SEQ ID NOs: 1-14 and 23-26) were incubated in concentration 1 μM with rat plasma (Sprague-Dawley, male; 400 μl) for different time points (0, 20, 40, 60 or 120 min) at 37° C. The incubation was terminated by acetonitrile. The collected samples were centrifuged for 20 min at 2272×g and analyzed. io Stock solutions were prepared using 50% DMSO, and the compounds were spiked 1/100 to incubation to have final DMSO content of 0.5%. The samples were analyzed by UHPLC/PDA with high resolution mass spectrometry (QE-Orbitrap-MS on DDI mode) to monitor disappearance of the compound. Enalapril 1 μM was used as a disappearance rate control. For analysis of compounds 9, 10, 13 and 14 stock solutions were prepared with PBS, and samples were analyzed by UHPLC-ToF mass spectrometry. The analytical method was optimized by using the parent compounds for optimum chromatographic properties (peak shape and retention) and mass spectrometric ionization. The ion chromatograms were extracted from the total ion chromatograms using calculated monoisotopic accurate masses with 5 mDa window. Disappearance was based on LC/MS peak areas, marking 0 min as 100%.
The first-order rate constants k (min-1) of the metabolism were obtained from the slope of time versus logarithm (% of remaining compound) plot using Excel software. The in vitro half-life (t1/2) of study compound is defined as: t1/2=In2/k. Calculated half-life is based on compound disappearance from rat plasma.

[2] = In vitro metabolic stability in human plasma; type: in vitro ADME; conditions: 1 μM, 37° C., up to 120 min
Protocol: s Metabolic stability studied using human plasma over the time period of 120 min, with initial test concentration of 1 μM. Samples were analyzed using LC/QE-orbitrap-MS. Calculated half-life is based on compound disappearance in human plasma.
The linear or macrocyclic compounds 1-8, 11-14 and 23-24 (SEQ ID NOs: 1-8, 11-14 and 23-26) were incubated in concentration 1 μM with human plasma (mixed gender, 400 μl) for different time points (0, 20, 40, 60 or 120 min) at 37° C. The incubation was terminated by acetonitrile. The collected samples were centrifuged for 20 min at 2272×g and analyzed. The samples were analyzed by UHPLC/PDA with high resolution mass spectrometry (QE-Orbitrap-MS on DDI mode) to monitor disappearance of the compound. Propanthelin […] bromide 1 μM was used as a disappearance rate control. The analytical method was optimized by using the parent compounds for optimum chromatographic properties (peak shape and retention) and mass spectrometric ionization. The Ion chromatograms were extracted from the total ion chromatograms using calculated monoisotopic accurate masses with 5 mDa window. Disappearance was based on LC/MS peak areas, marking 0 min as 100%. The first-order rate constants k (min-1) of the metabolism were obtained from the slope of time versus logarithm (% of remaining compound) plot using Excel software.

GRP78-NBD = assay: Binding to GRP78-NBD Kd (μM)
Description: Table printed on a drawing sheet, FIG. 5B
Head of the field: Binding to GRP78-NBD Kd (μM)
GRP78-NBD is shown in a translucent surface model along with its cartoon trace. The Cys-Cys bond in compound 12 (SEQ ID NO: 12) is shown in sticks.
The binding affinities are obtained by a microscale thermophoresis-based cell-free assay.
GSK2606414 was used to inhibit PERK signaling and KIRA6 to inhibit IRE1alpha signaling. * p<0.05, ** p<0.01, *** p<0.001, **** p<0.0001 one-way ANOVA is test with post-hoc Fisher's LSD test for pairwise comparison vs MPP+ negative control. # p<0.05, ## p<0.01, ### p<0.001, #### p<0.0001 one-way ANOVA test with post-hoc Fisher's LSD test for pairwise comparison between effect of compound alone and its combination with UPR signal inhibitor.
Where the first naming reader finds the target: head: Binding to GRP78-NBD Kd (μM)

[3] = Brain microdialysis (striatal interstitial fluid) after intravenous bolus; type: in vivo, male Sprague-Dawley rats; conditions: single 10 mg/kg intravenous bolus, microdialysis 4 hours
Protocol: Microdialysis probes were inserted to the ventral striatum of rats through implanted guide […] cannulas and perfused by aCSF. Compound 14 was administered as a single 10 mg/kg intravenous bolus injection and microdialysis samples were collected in 20-min interval for 4 hours. The brain interstitial fluid (ISF) concentrations of the compound were determined by LC-MS/MS and normalized to the recovery-% of the microdialysis membrane (determined by in vitro experiments).
Brain microdialysis study was carried out on the separate group of awake animals treated intravenously with compound 14. One week before the microdialysis experiment Sprague- Dawley rats were implanted with a guide cannula in the striatum at the following coordinates: AP +0.6 mm; L −3.0 mm; V −2.8 mm, providing the final V −6.8 mm for the tip of the microdialysis probe. On the day of the experiment a microdialysis probe (Eicom A-I: 0.22 mm O.D., 4 mm membrane length with cut-off 50 kDa) were inserted into the guide cannula and perfused at a constant flow-rate of 0.1 μL/min with artificial cerebrospinal fluid (aCSF) solution. […] The brain intrastitial fluid concentrations of the compound were analysed by UHPLC-MS/MS. […] Determined recovery percentage (29.3%) was used for correction of the data obtained in microdialysis study.

[4] = tested on: dopaminergic TH-positive neurons injured with MPP+; assay: Dependence of neuroprotective activity on UPR pathway signaling (MPP+ injured mesencephalic neurons with PERK or IRE1alpha inhibitor); type: cell-based, rat; conditions: for neuroprotective effect in the presence of PERK inhibitor GSK2606414: GSK2606414 added 1 h before test compound; for neuroprotective effect in the presence of IRE1alpha inhibitor KIRA6: KIRA6 added 1 h before test compound
Protocol: CDNF and MANF protect cells from ER stress-induced cell dysfunction or cell death, such as apoptosis by modulating cellular responses to ER stress. […] Binding of compounds to GRP78-NBD was assessed in a cell-free binding assay using purified recombinant GRP78-NBD and synthesized peptides. As GRP78 also serves as a critical ligand of the three receptors of the unfolded protein response (UPR) pathway, […], PERK and ATF6, the dependency of the compounds' neuroprotective effects on UPR signaling was also tested.
The neuronal cell culture, MPP+ intoxication, immunostaining and analysis of neuroprotective effects of compounds were performed as in Example 1. PERK inhibitor GSK2606414 (2 µM , Sigma) or IRE1alpha inhibitor KIRA6 (2 µM , Sigma) were added to the culture 1 h before addition of the test compounds.

| Structure (SMILES) | stability in rat plasma as compared to linear counterpart [1] | stability in human plasma as compared to linear counterpart [2] | Kd (GRP78-NBD) [nM] | penetration to the brain parenchyma (brain ISF, striatum) [3] | neuroprotective effect in the presence of PERK inhibitor GSK2606414 [4] | neuroprotective effect in the presence of IRE1alpha inhibitor KIRA6 [4] |
| --- | --- | --- | --- | --- | --- | --- |
| CC[C@H](C)[C@@H]1NC(=O)[C@H](CCC(N)=O)NC(=O)[C@H](CCCCN)NC(=O)[C@H](CC(C)C)NC(=O)[C@H](CCC(=O)O)NC(=O)[C@H](C)NC(=O)[C@H](C(C)C)NC(=O)[C@H](CCCNC(=N)N)NC(=O)[C@H](CCSC)NC(=O)[C@H](CCCCN)NC(=O)[C@H](CCCNC(=N)N)NC(=O)[C@H](CC(C)C)NC(=O)[C@H](CC(=O)O)NC(=O)[C@H](C(C)C)NC(=O)[C@H](CCC(=O)O)NC(=O)[C@H](C)NC(=O)[C@@H]2CSSC[C@H](NC(=O)[C@H](CCC(=O)O)NC(=O)[C@H](CCC(=O)O)NC(=O)CNC(=O)[C@H](Cc3c[nH]c4ccccc34)NC(=O)[C@H](CO)NC(=O)[C@H](Cc3c[nH]cn3)NC(=O)[C@H](CC(C)C)NC1=O)C(=O)N[C@@H](CCCNC(=N)N)C(=O)N[C@@H](C)C(=O)N2 [Compound 2] (cyclo(ACAEVDLRKMRVAELKQILHSWGEECR); disulfide 2-26) | improved stability | improved stability |  |  |  |  |
| CC[C@H](C)[C@@H]1NC(=O)[C@H](CCCCN)NC(=O)[C@H](CCCCN)NC(=O)[C@H](CC(C)C)NC(=O)[C@H](CCC(=O)O)NC(=O)[C@H](CCCCN)NC(=O)[C@H](C(C)C)NC(=O)[C@H](CCCNC(=N)N)NC(=O)[C@H](CC(C)C)NC(=O)[C@H](CCCCN)NC(=O)[C@H](CCC(=O)O)NC(=O)[C@H](C)NC(=O)[C@@H]2CSSC[C@H](NC(=O)[C@H]([C@@H](C)O)NC(=O)[C@H](CCC(=O)O)NC(=O)CNC(=O)[C@H](Cc3c[nH]c4ccccc34)NC(=O)[C@H](CC(=O)O)NC(=O)[C@H](CC(=O)O)NC(=O)[C@H](CC(C)C)NC1=O)C(=O)N[C@@H](CCCCN)C(=O)NCC(=O)N2 [Compound 8] (cyclo(AEKLRVKELKKILDDWGETCKGC); disulfide 20-23) | improved stability |  |  |  |  |  |
| C[C@@H]1NC(=O)[C@@H]2CSSC[C@H](NC(=O)[C@H]([C@@H](C)O)NC(=O)[C@H](CCC(=O)O)NC(=O)CNC(=O)[C@H](Cc3c[nH]c4ccccc34)NC(=O)[C@H](CO)NC(=O)[C@H](CCCCN)NC(=O)[C@H](CCC(=O)O)NC1=O)C(=O)N[C@@H](CCCCN)C(=O)NCC(=O)N2 [Compound 14, WGETCKGCAEKS] (cyclo(AEKSWGETCKGC); disulfide 9-12) | improved stability |  | 1500 | penetration | abolished | abolished |
| CC[C@H](C)[C@@H]1NC(=O)[C@H](CO)NC(=O)[C@H](CCCCN)NC(=O)[C@H](CCC(=O)O)NC(=O)[C@H](C)NC(=O)[C@@H]2CSSC[C@H](NC(=O)[C@H]([C@@H](C)O)NC(=O)[C@H](CCC(=O)O)NC(=O)CNC(=O)[C@H](Cc3c[nH]c4ccccc34)NC(=O)[C@H](CC(=O)O)NC(=O)[C@H](CC(=O)O)NC(=O)[C@H](CC(C)C)NC1=O)C(=O)N[C@@H](CCCCN)C(=O)NCC(=O)N2 [Compound 10, KSILDDWGETCKGCAE] (cyclo(AEKSILDDWGETCKGC); disulfide 13-16) | improved stability |  |  |  | abolished | abolished |
| C[C@@H]1NC(=O)[C@@H]2CSSC[C@H](NC(=O)[C@H](CCC(=O)O)NC(=O)[C@H](CCC(=O)O)NC(=O)CNC(=O)[C@H](Cc3c[nH]c4ccccc34)NC(=O)[C@H]([C@@H](C)O)NC(=O)[C@H](CCCCN)NC(=O)[C@H](CCC(=O)O)NC1=O)C(=O)N[C@@H](CCCNC(=N)N)C(=O)N[C@@H](C)C(=O)N2 [Compound 12, WGEECRACAEKT] (cyclo(ACAEKTWGEECR); disulfide 2-11) |  |  | 1650 |  |  |  |
| C[C@@H]1NC(=O)[C@@H]2CSSC[C@H](NC(=O)[C@H]([C@@H](C)O)NC(=O)[C@H](CCC(=O)O)NC(=O)CNC(=O)[C@H](Cc3c[nH]c4ccccc34)NC(=O)[C@H](CO)NC(=O)[C@H](CCCCN)NC(=O)[C@H](CCC(=O)O)NC1=O)C(=O)N[C@@H](CCCCN)C(=O)NCC(=O)NCC(=O)N2 [Compound 26, WGETCKGGCAEKS] (cyclo(AEKSWGETCKGGC); disulfide 9-13) | improved stability | improved stability |  |  |  |  |
